Columns and labels:
[1] = Powder flowability experiment (tap density, compression coefficient); format: physicochemical
[2] = Hygroscopicity experiment of crystalline form XI (DVS, dynamic vapour sorption); format: physicochemical; conditions: 25℃, sample of Example 1
[3] = Crystal form stability under storage conditions (XRD, day 0 vs day 30); format: physicochemical; conditions: storage conditions of Table 3 (high temperature 60℃, high humidity 92.5%, high humidity 75%, light irradiation), sample of Example 11
[4] = Impurity stability under storage conditions (HPLC purity after 30 days); format: physicochemical; conditions: high temperature 60℃, high humidity 92.5%, high humidity 75% and light irradiation, sample of Example 11
[5] = in vivo; conditions: rat, po, 1.25 mg/kg
[6] = Dissolution experiment of crystalline form XI capsules (paddle method, pH 4.0 medium); format: physicochemical; conditions: capsules of form XI (Example 12), 900ml, 37℃, 75r/min, UV 250nm

compression coefficient (comparison) ([1]; compression coefficient (%) = 100% (tap density - bulk density)/tap density, form C (made according to CN100569753C) vs form XI (Example 12)) | weight loss ([2]; relative humidity 0~40%) | weight gain by moisture absorption ([2]; relative humidity 40~80%) | change of crystal form (XRD pattern) [3] | change of purity (HPLC) [4] | flowability (comparison) ([1]; form XI (Example 12) vs form C (made according to CN100569753C)) | AUC(0-t) at 24 h [5] | Cmax [5] | Tmax [5] | time at which dissolution is basically complete [6] | SMILES
결정형 XI의 압축 계수보다 훨씬 더 높으며 |  |  |  |  |  |  |  |  |  | COc1cc2nccc(Oc3ccc(NC(=O)NC4CC4)c(Cl)c3)c2cc1C(N)=O [결정형 C, 렌바티닙 메실레이트]
 | ~0.33% | ~0.25% | 결정형 변화가 없었다 | 큰 변화가 없었다 | 결정형 C의 유동성보다 훨씬 우수하며 | 22900 ± 2840 ng·h/mL | 2290 ± 216 ng/mL | 4 ± 1.73 h | ~120 min | COc1cc2nccc(Oc3ccc(NC(=O)NC4CC4)c(Cl)c3)c2cc1C(N)=O [결정형 XI, 렌바티닙 메실레이트, 메실레이트 이수화물]

From patent KR20230003036A, “렌바티닙 메실레이트의 결정형 xi 및 이의 제조방법” (청두 이스턴 바이오파마슈티컬 컴퍼니 리미티드, priority 2020, dated 2021)
